Assay results from patent US5306819A, “Certain aryl a cycloalkyl fused imidazopyrazinols; and new class of GABA brain receptor ligands” (Neurogen Corporation, priority 1992, dated 1994).

Legend:
[1] = test system: GABA receptor; settings: Tallman et al., 1978; cited from earlier work
[2] = target: GABAa receptor; assay: assay for GABAa receptor activity: inhibition of 3H-RO15-1788 (3H-Flumazenil) binding to rat cortical tissue; settings: 3H-RO15-1788 0.5 nM, 30 min at 4°
Protocol: The pharmaceutical utility of compounds of this invention are indicated by the following assay for GABAa receptor activity.
Assays are carried out as described in Thomas and Tallman (J. Bio. Chem. 156: 9838-9842, J. Neurosci. 3:433-440, 1983). Rat cortical tissue is dissected and homogenized in 25 volumes (w/v) of 0.05M Tris HCl buffer (pH 7.4 at 4° C.). The tissue homogenate is centrifuged in the cold (4°) at 20,000×g for 20'. The supernatant is decanted and the pellet is rehomogenized in the same volume of buffer and again centrifuged at 20,000×g. The supernatant is decanted and the pellet is frozen at -20° C. overnight. The pellet is then thawed and rehomogenized in 25 volumes (original wt/vol) of buffer and the procedure is carried out twice. The pellet is finally resuspended in 50 volumes (w/vol of 0.05M Tris HCl buffer (pH 7.4 at […]).
Incubations contain […] of tissue homogenate, […] of radioligand 0.5 nM (^3 H-RO15-1788 [^3 H-Flumazenil] specific activity 80 Ci/mmol), drug or blocker and buffer to a total volume of […]. Incubations are carried for 30 min at 4° then are rapidly filtered through GFB filters to separate free and bound ligand. Filters are washed twice with fresh 0.05M Tris HCl buffer (pH 7.4 at 4° C.) and counted in a liquid scintillation counter. […] diazepam is added to some tubes to determine nonspecific binding. Data are collected in triplicate determinations, averaged and % inhibition of total specific binding is calculated. Total Specific Binding=Total-Nonspecific. In some cases, the amounts of unlabeled drugs is varied and total displacement curves of binding are carried out. Data are converted to a form for the calculation of IC50 and Hill Coefficient (nH).

Row | SMILES | Enhancement of benzodiazepine binding by GABA agonists is blocked [1] | IC50 [2] [nM]
1 | CN1CCc2cc3c(cc2[C@H]1[C@@H]1OC(=O)c2c1ccc1c2OCO1)OCO3 [(+) bicuculline] | blocked | –
2 | CN1CCc2cc3c(cc2[C@@H]1[C@H]1OC(=O)c2c1ccc1c2OCO1)OCO3 [(-) bicuculline] | much less active | –
3 | O=c1c(-c2ccccc2F)nc2c[nH]c3c(n1-2)CCCC3 [Compound 1, 2-(2-fluorophenyl)-imidazo-[1,2-a]-6,7,8,9-tetrahydroquinoxalin-1(5H)-one] | – | 11
4 | COc1ccc(-c2nc3c[nH]c4c(n-3c2=O)CCCC4)c(F)c1 [Compound 8, 2-(2-Fluoro-4-methoxyphenyl)-imidazo-[1,2-a]-6,7,8,9-tetrahydroquinoxalin-1(5H)-one] | – | 5.4
5 | COc1ccc(-c2nc3c[nH]c4c(n-3c2=O)CCCCC4)c(F)c1 [Compound 15, 2-(2-Fluoro-4-methoxyphenyl)-cyclohept[b]imidazo[2,1-f]pyrazin-1(5H)-one] | – | 13
6 | COc1ccc(-c2nc3c[nH]c4c(n-3c2=O)CCC4)c(F)c1 [Compound 16, 2-(2-Fluoro-4-methoxyphenyl)-cyclopent[b]imidazo[2,1-f]pyrazin-1(5H)-one] | – | 15
